According to patent publication US20250179031A1, “PROTEASOME ENHANCERS AND USES THEREOF” (Board of Trustees of Michigan State University, priority 2022, published 2025):

Key:
Assay type in all cases: biochemical
human 20S proteasome = tested on: T1, human 20S proteasome; test: Fluorogenic peptide degradation 20S proteasome activity assay, combination of CT-L, T-L and Casp-L substrates; conditions: for Fold increase over vehicle (30 μM), enhancement of 20S activity: 30 μM compound, mixture of the three substrates, 15 min pre-treatment at 37° C., 1 h read
T1 construct: purchased Boston Biochem, Inc. (Cambridge, MA)
Method: (§1) Activity assays were carried out in a 100 μL reaction volume. Different concentrations (40-1.25 μM) of test compounds (1 μL) were added to a black flat/clear bottom 96-well plate containing 2 nM of human constitutive 20S proteasome ([…]), in 50 mM Tris-HCl at pH 7.8, 100 mM NaCl and allowed to incubate for 15 min at 37° C. Fluorogenic substrates (5 μL) were then added and the enzymatic activity measured at 37° C. on a SpectraMax M5e spectrometer by measuring the change in fluorescence unit per minute for 1 hour at 380-460 nm. The fluorescence units for the vehicle control were set at a 100%, and the ratio of drug-treated sample set to that of vehicle control was used to calculate the fold change in enzymatic activity. The fluorogenic substrates used were one of the following: Suc-LLVY-AMC (CT-L activity, 20 μM), Z-LLE-AMC (Casp-L activity, 20 μM), Boc-LRR-AMC (Trp-L activity, 40 μM) or a combination of the three substrates each at 6.67 μM. Results were analysed and plotted using GraphPad Prism 7.
(§2) Screening of this library of dihydroquinazolines was performed in two stages. In the first stage, each compound was screened at three concentrations (3, 10 and 30 μM) to select lead agents. Secondly, lead agents were further analyzed using full concentration responses (6-point titration ranging from 1.25 μM-40 μM) for each of the three proteolytic activities of the 20S proteasome and a combination thereof. The proteolytic activity of the 20S proteasome can be monitored in vitro by measuring the cleavage of fluorogenic peptide substrates for the different catalytic sites as an increase in 7-amino-4-methycoumarin (AMC) fluorescence overtime. A combination of chymotrypsin-like (CT-L, Suc-LLVY-AMC), tryptic-like (T-L, Boc-LRR-AMC) and caspase-like (Casp-L, Z-LLE-AMC) peptide substrates were used in equal amounts to screen compounds for overall 20S activity.
Pure human 20S proteasome was pre-treated with 3, 10 or 30 μM of one of the analogues or DMSO (vehicle control) for 15 min at 37° C. To each sample was then added a mixture of the three substrates (13.3 μM each). The release of AMC was monitored as fluorescence overtime for 1 h and the resulting 20S activity changes were determined by comparing to the untreated 20S and calculating the fold-increase in activity for each analogue at a given concentration (Table 1, 30 μM).
(§3) After analyzing the results in Table 1, three of the most promising analogues were selected for further studies into their 20S activity. Compounds 10, 2 and 18 were selected to be carried forward based on their fold increase and the highest Max-Fold activities. […] These compounds were then tested to obtain a full concentration—response (FIG. 1) of their activities towards the 20S proteasome using each of the three substrates for the three catalytic sites individually and the combination of the three substrates. This was done to ensure that each of the selected compounds activate the 20S proteasome at all three catalytic sites, which is critical for effective IDP degradation, as these proteins are likely to contain multiple cleavage sites for each.
(§4) Using the data in FIG. 1, the concentration at which 20S activity was doubled (AC200) was calculated for each compound using each substrate and the combination of the three substrates (Table 2).

[1] = tested on: T2, human 20S proteasome, chymotrypsin-like (CT-L) site; test: Fluorogenic peptide degradation 20S proteasome activity assay, Suc-LLVY-AMC (CT-L activity); conditions: Suc-LLVY-AMC substrate
T2 construct: purchased Boston Biochem, Inc. (Cambridge, MA)
Method: as §1, §2, §3, §4

[2] = tested on: T3, human 20S proteasome, tryptic-like (T-L) site; test: Fluorogenic peptide degradation 20S proteasome activity assay, Boc-LRR-AMC (T-L activity); conditions: Boc-LRR-AMC substrate
T3 construct: purchased Boston Biochem, Inc. (Cambridge, MA)
Method: as §1, §2, §3, §4

[3] = tested on: T4, human 20S proteasome, caspase-like (Casp-L) site; test: Fluorogenic peptide degradation 20S proteasome activity assay, Z-LLE-AMC (Casp-L activity); conditions: Z-LLE-AMC substrate
T4 construct: purchased Boston Biochem, Inc. (Cambridge, MA)
Method: as §1, §2, §3, §4

[4] = combination of the three substrates
[5] = combination of the three substrates, 1.25-40 μM titration

Row | SMILES | Fold increase over vehicle (30 μM), enhancement of 20S activity (human 20S proteasome) [fold] | further results
1 | c1ccc(CN2C(c3ccccc3)=Nc3ccccc3C2c2ccccc2)cc1 (stereo not drawn) [Compound 1, 3-Benzyl-2,4-diphenyl-3,4-dihydroquinazoline] | 4 | 
2 | COc1ccc2c(c1)N=C(c1ccccc1)N(Cc1ccccc1)C2c1ccccc1 (stereo not drawn) [Compound 2] | 7.9 | concentration at which 20S activity was doubled in the combination (in words) (human 20S proteasome; [4]): low μM concentrations; AC200 (concentration at which 20S activity was doubled), Combo (human 20S proteasome; [5]): 2.0 µM; Max Fold, Combo (human 20S proteasome; [5]): 10.1 fold; AC200, CT-L [1]: 12.9 µM; Max Fold, CT-L [1]: 5.6 fold; AC200, T-L [2]: 5.0 µM; Max Fold, T-L [2]: 11.7 fold; AC200, Casp-L [3]: 5.6 µM; Max Fold, Casp-L [3]: 13.4 fold
3 | Cc1ccc2c(c1)N=C(c1ccccc1)N(Cc1ccccc1)C2c1ccccc1 (stereo not drawn) [Compound 3, 3-Benzyl-7-methyl-2,4-diphenyl-3,4-dihydroquinazoline] | 8.1 | 
4 | CCCCCc1ccc2c(c1)N=C(c1ccccc1)N(Cc1ccccc1)C2c1ccccc1 (stereo not drawn) [Compound 4, 3-Benzyl-7-pentyl-2,4-diphenyl-3,4-dihydroquinazoline] | 2.8 | 
5 | COc1ccc2c(c1)N=C(C1CCCCC1)N(Cc1ccccc1)C2c1ccccc1 (stereo not drawn) [Compound 5, 3-Benzyl-2-cyclohexyl-7-methoxy-4-phenyl-3,4-dihydroquinazoline] | 6.5 | 
6 | COc1ccc2c(c1)N=C(C1CC1)N(Cc1ccccc1)C2c1ccccc1 (stereo not drawn) [Compound 6] | 2.7 | 
7 | COc1ccc2c(c1)N=C(C(C)C)N(Cc1ccccc1)C2c1ccccc1 (stereo not drawn) [Compound 7] | 2.3 | 
8 | CCCCCC1=Nc2cc(OC)ccc2C(c2ccccc2)N1Cc1ccccc1 (stereo not drawn) [Compound 8] | 2.8 | 
9 | COc1ccc2c(c1)N=C(C)N(Cc1ccccc1)C2c1ccccc1 (stereo not drawn) [Compound 9] | 1.8 | 
10 | COc1ccc2c(c1)N=C(c1ccccc1)N(c1ccccc1)C2c1ccccc1 (stereo not drawn) [Compound 10] | 9.5 | concentration at which 20S activity was doubled in the combination (in words) (human 20S proteasome; [4]): low μM concentrations; Max Fold, Combo (human 20S proteasome; [5]): 11.1 fold; AC200, CT-L [1]: 8.1 µM; Max Fold, CT-L [1]: 6.7 fold; AC200, T-L [2]: 2.5 µM; Max Fold, T-L [2]: 15.0 fold; AC200, Casp-L [3]: 5.8 µM; Max Fold, Casp-L [3]: 15.3 fold
11 | COc1ccc2c(c1)N=C(c1ccccc1)N(c1ccccn1)C2c1ccccc1 (stereo not drawn) [Compound 11, 7-Methoxy-2,4-diphenyl-3-(2-pyridyl)-3,4-dihydroquinazoline] | 6.9 | 
12 | COc1ccc2c(c1)N=C(c1ccccc1)N(c1cccnc1)C2c1ccccc1 (stereo not drawn) [Compound 12] | 5.9 | 
13 | COc1ccc2c(c1)N=C(c1ccccc1)N(c1cccc3cccnc13)C2c1ccccc1 (stereo not drawn) [Compound 13, 7-Methoxy-2,4-diphenyl-3-(8-quinolyl)-3,4-dihydroquinazoline] | 5.3 | 
14 | COc1ccc2c(c1)N=C(c1ccccc1)N(Cc1ccccn1)C2c1ccccc1 (stereo not drawn) [Compound 14, 7-Methoxy-2,4-diphenyl-3-[(2-pyridyl)methyl]-3,4-dihydroquinazoline] | 2 | 
15 | COc1ccc2c(c1)N=C(c1ccccc1)N(CCc1ccccn1)C2c1ccccc1 (stereo not drawn) [Compound 15, 7-Methoxy-2,4-diphenyl-3-[2-(2-pyridyl)ethyl]-3,4-dihydroquinazoline] | 2.8 | 
16 | COc1ccc2c(c1)N=C(c1ccccc1)N(C1CCCCC1)C2c1ccccc1 (stereo not drawn) [Compound 16, 3-Cyclohexyl-7-methoxy-2,4-diphenyl-3,4-dihydroquinazoline] | 6.7 | 
17 | COc1ccc2c(c1)N=C(c1ccccc1)N(C1CCN(C)CC1)C2c1ccccc1 (stereo not drawn) [Compound 17, 7-Methoxy-3-(1-methyl-4-piperidyl)-2,4-diphenyl-3,4-dihydroquinazoline] | 1 | Max Fold, Combo (human 20S proteasome; [5]): 1.4 fold; activity towards the 20S (in words) (human 20S proteasome; screen of Table 1): no discemible activity towards the 20S; Max Fold, CT-L [1]: 1.1 fold; Max Fold, T-L [2]: 1.0 fold; Max Fold, Casp-L [3]: 0.8 fold
18 | COc1ccc2c(c1)N=C(c1ccccc1)N(CC1CCN(C)CC1)C2c1ccccc1 (stereo not drawn) [Compound 19, 7-Methoxy-3-[(1-methyl-4-piperidyl)methyl]-2,4-diphenyl-3,4-dihydroquinazoline] | 1.2 | 
19 | COc1ccc2c(c1)N=C(c1ccccc1)N(CC1CCOCC1)C2c1ccccc1 (stereo not drawn) [Compound 20, 7-Methoxy-2,4-diphenyl-3-[(tetrahydro-2H-pyran-4-yl)methyl]-3,4-dihydroquinazoline] | 1.6 | 
20 | COc1ccc2c(c1)N=C(c1ccccc1)N(CC1CCCCC1)C2c1ccccc1 (stereo not drawn) [Compound 21, 3-(Cyclohexylmethyl)-7-methoxy-2,4-diphenyl-3,4-dihydroquinazoline] | 8.2 | 
21 | COc1ccc2c(c1)N=C(c1ccccc1)N(CC#N)C2c1ccccc1 (stereo not drawn) [Compound 22, (7-Methoxy-2,4-diphenyl-3,4-dihydroquinazolin-3-yl)acetonitrile] | 2.7 | 
22 | C=CCN1C(c2ccccc2)=Nc2cc(OC)ccc2C1c1ccccc1 (stereo not drawn) [Compound 23] | 2.3 | 
23 | CCCCCCN1C(c2ccccc2)=Nc2cc(OC)ccc2C1c1ccccc1 (stereo not drawn) [Compound 24] | 1.6 | 
